In patent US20240082274A1, “FUNGAL COMPOUND COMPOSITIONS AND METHODS FOR MODULATING INFLAMMATION” (TURTLE BEAR HOLDINGS, LLC, priority 2021, published 2024):

Experiments:
JNK3 (MAPK10) = target: T1, JNK3 (MAPK10) (Homo sapiens, UniProt P53779); assay: MAPK binding affinity screen (DiscoveRx); settings: component alone
T1 construct: purchased DiscoveRx

[1] = target: T2, JAK1 (JH1domain-catalytic) (Homo sapiens, UniProt P23458); assay: MAPK binding affinity screen (DiscoveRx); settings: component alone
T2 construct: (JH1domain-; purchased DiscoveRx

PC12 cells = assay: Neurite outgrowth in rat PC12 cells; assay type: cell-based; settings: 6 days
Description: Rat PC12 cells are a cell line derived from rat pheochromocytoma and are an immortalised cell line similar to the primary culture of fetal neurons. These cells are relatively easy to passage and culture and have some features of neurons, which makes them useful in the study of nerve physiology and pharmacology.

MAPK = MAPK binding screen, general statements; settings: low ng concentrations
Description: It was identified that many combination formulations of tryptamines, He/PEP/Erinacine C, and niacin can interact with several mitogen-activated protein kinases (MAPKs) involved with brain health and can even provide synergistic benefits (Tables 7-8).
It was surprising and unexpected that such dilute psilocin at low ng concentrations produced a synergistic effect on MAPK binding when combined with other components because these low concentrations had no effect on MAPK binding when used alone. Therefore, one would have expected these low concentrations to be ineffective. The low concentrations also overcome the pharmacodynamic issues faced when using high concentrations of psilocin.

TNF-α = TNF-α expression in LPS-induced human PBMCs; assay type: cell-based; settings: 100 ng/mL LPS, individual components, FIG. 13
p38-alpha (MAPK14) = target: T3, p38-alpha (MAPK14) (Homo sapiens, UniProt Q16539); assay: MAPK binding affinity screen (DiscoveRx); settings: component alone
T3 construct: purchased DiscoveRx

TRKA (NTRK1) = target: T4, TRKA (NTRK1) (Homo sapiens, UniProt P04629); assay: MAPK binding affinity screen (DiscoveRx); settings: component alone
T4 construct: purchased DiscoveRx

TRKB (NTRK2) = target: T5, TRKB (NTRK2) (Homo sapiens, UniProt Q16620); assay: MAPK binding affinity screen (DiscoveRx); settings: component alone, row of combination at 5 μg/mL
T5 construct: purchased DiscoveRx

ROCK2 = target: T6, ROCK2 (Homo sapiens, UniProt O75116); assay: MAPK binding affinity screen (DiscoveRx); settings: component alone, row of combination at 62.5 μg/mL
T6 construct: purchased DiscoveRx

[2] = cited from earlier work
MAO-A = target: T7, MAO-A (Homo sapiens, UniProt P21397); settings: Herraiz et al., 2010; cited from earlier work
T7 sequence (P21397 1-527): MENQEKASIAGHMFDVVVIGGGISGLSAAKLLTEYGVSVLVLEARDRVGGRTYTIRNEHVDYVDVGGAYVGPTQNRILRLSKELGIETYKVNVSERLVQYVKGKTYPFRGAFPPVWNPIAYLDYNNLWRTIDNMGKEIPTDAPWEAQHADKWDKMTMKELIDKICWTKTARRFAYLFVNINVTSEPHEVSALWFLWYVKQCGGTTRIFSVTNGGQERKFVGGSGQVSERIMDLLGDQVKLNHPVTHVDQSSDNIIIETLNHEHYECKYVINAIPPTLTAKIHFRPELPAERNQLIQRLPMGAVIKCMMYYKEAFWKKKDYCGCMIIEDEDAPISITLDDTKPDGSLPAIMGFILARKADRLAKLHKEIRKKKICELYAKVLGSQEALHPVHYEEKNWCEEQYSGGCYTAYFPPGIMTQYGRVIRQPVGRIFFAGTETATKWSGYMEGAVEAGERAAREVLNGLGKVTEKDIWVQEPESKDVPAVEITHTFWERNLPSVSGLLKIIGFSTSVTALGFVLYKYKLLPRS

MAO-B = target: T8, MAO-B (Homo sapiens, UniProt P27338); settings: Herraiz et al., 2010; cited from earlier work
T8 sequence (P27338 1-520): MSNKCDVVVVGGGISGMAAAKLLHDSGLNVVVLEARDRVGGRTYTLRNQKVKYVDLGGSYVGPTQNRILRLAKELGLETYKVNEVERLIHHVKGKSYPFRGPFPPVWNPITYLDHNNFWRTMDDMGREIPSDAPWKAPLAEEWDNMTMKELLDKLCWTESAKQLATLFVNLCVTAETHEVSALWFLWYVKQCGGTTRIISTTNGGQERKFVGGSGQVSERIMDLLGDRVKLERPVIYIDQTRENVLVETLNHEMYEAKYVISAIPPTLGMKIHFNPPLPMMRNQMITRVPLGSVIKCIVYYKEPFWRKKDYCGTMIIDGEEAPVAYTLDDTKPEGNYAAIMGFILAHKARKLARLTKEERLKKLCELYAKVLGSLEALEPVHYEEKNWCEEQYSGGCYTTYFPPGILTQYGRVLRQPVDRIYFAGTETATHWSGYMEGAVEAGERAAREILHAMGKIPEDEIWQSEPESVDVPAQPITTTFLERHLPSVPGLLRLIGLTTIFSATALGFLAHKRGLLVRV

5-HT2A receptor = 5-HT2A receptor (Homo sapiens, UniProt P28223); settings: Flanagan and Nichols, 2018; cited from earlier work
[3] = Flanagan and Nichols, 2018; cited from earlier work
IL-10 = IL-10 expression in human PBMCs under standard non-inflammatory conditions; assay type: cell-based; settings: at multiple concentrations
Procedure: In a separate experiment, human peripheral blood mononuclear cells (PBMCs) were treated with different concentrations of norbaeocystin, norpsilocin, and vehicle control under standard non-inflammatory conditions, and IL-10 expression was measured.

IL-6 = settings: human PBMCs, 100 ng/mL LPS; 0.43 μg/mL; FIG. 12
Procedure: Human PBMCs were treated with 100 ng/mL LPS to induce inflammatory conditions.

[4] = row of combination at 0.6, 0.6 ng/mL
[5] = row of combination at 3, 0.2 ng/mL
[6] = row of combination at 250 μg/mL
[7] = row of combination at 16, 16 ng/mL
[8] = row of combination at 125 μg/mL
[9] = row of combination at 2.5 μg/mL

T3 sequence (Q16539 whole entry): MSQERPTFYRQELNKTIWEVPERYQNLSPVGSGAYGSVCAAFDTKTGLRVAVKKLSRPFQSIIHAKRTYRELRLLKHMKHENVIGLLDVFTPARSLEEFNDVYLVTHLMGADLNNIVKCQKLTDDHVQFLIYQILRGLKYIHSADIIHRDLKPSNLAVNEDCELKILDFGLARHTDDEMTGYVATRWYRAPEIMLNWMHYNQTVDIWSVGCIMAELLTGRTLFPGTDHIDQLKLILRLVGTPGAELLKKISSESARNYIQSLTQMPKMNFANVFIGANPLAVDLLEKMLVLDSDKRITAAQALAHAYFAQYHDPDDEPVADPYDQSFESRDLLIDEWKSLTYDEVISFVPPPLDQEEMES
T1 sequence (P53779 whole entry): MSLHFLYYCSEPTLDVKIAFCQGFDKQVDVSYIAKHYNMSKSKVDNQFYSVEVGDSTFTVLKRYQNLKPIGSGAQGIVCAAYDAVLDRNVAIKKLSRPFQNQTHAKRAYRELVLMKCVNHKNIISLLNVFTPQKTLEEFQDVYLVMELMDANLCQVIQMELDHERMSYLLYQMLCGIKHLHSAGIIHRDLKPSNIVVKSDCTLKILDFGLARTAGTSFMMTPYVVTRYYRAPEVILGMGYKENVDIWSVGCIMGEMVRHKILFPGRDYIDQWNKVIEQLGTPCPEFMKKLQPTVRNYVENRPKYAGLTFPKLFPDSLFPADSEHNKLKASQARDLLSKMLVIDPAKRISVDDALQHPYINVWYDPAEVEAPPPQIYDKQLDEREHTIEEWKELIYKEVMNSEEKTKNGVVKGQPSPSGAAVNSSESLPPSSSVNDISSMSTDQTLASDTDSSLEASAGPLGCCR
T2 sequence (P23458 875-1153 limits assumed): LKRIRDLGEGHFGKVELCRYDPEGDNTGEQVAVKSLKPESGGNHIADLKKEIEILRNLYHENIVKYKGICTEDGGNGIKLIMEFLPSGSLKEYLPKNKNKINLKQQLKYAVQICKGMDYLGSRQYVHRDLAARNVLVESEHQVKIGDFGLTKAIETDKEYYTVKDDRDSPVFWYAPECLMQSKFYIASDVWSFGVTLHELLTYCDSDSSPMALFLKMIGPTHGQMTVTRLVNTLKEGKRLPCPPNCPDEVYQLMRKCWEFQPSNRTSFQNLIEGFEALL
T4 sequence (P04629 33-796): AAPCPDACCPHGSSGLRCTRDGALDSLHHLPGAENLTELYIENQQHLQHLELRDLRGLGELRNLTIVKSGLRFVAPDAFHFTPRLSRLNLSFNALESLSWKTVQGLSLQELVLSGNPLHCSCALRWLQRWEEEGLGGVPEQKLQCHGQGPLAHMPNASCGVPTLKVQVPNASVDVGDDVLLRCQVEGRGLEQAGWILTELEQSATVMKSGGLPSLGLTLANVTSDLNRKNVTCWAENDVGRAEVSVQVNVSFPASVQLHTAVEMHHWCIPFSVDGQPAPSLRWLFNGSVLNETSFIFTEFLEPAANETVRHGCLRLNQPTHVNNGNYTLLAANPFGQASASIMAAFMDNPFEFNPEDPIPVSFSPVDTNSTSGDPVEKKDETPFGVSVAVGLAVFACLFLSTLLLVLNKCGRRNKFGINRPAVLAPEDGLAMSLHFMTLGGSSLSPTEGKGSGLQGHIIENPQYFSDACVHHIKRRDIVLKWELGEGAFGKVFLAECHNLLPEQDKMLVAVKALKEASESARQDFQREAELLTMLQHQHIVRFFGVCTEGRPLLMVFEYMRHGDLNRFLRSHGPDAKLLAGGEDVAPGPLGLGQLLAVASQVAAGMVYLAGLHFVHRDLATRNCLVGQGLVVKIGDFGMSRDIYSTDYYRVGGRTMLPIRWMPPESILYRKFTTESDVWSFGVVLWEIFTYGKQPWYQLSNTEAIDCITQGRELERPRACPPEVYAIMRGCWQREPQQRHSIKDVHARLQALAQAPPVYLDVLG
T5 sequence (Q16620 32-822): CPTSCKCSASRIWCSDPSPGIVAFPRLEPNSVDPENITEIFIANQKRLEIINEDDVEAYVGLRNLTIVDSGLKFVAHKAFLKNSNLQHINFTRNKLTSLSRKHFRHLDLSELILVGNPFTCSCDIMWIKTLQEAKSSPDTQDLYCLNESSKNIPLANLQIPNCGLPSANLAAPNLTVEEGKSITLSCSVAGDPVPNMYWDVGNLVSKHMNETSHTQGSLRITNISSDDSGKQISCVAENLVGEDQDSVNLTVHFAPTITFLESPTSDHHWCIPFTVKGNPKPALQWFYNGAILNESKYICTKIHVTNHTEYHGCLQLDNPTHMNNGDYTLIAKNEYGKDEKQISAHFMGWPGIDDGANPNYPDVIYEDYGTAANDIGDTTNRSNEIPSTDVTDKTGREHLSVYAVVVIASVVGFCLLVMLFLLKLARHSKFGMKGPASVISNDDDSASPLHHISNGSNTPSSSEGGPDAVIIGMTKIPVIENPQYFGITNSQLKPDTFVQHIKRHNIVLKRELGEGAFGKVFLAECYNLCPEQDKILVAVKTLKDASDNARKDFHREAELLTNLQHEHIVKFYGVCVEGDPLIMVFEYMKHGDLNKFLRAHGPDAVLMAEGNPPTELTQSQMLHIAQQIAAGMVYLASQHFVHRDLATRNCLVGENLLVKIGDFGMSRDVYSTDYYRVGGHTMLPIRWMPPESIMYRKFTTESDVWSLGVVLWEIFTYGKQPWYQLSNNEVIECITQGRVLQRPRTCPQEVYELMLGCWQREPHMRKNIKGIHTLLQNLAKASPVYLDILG
T6 sequence (O75116 whole entry): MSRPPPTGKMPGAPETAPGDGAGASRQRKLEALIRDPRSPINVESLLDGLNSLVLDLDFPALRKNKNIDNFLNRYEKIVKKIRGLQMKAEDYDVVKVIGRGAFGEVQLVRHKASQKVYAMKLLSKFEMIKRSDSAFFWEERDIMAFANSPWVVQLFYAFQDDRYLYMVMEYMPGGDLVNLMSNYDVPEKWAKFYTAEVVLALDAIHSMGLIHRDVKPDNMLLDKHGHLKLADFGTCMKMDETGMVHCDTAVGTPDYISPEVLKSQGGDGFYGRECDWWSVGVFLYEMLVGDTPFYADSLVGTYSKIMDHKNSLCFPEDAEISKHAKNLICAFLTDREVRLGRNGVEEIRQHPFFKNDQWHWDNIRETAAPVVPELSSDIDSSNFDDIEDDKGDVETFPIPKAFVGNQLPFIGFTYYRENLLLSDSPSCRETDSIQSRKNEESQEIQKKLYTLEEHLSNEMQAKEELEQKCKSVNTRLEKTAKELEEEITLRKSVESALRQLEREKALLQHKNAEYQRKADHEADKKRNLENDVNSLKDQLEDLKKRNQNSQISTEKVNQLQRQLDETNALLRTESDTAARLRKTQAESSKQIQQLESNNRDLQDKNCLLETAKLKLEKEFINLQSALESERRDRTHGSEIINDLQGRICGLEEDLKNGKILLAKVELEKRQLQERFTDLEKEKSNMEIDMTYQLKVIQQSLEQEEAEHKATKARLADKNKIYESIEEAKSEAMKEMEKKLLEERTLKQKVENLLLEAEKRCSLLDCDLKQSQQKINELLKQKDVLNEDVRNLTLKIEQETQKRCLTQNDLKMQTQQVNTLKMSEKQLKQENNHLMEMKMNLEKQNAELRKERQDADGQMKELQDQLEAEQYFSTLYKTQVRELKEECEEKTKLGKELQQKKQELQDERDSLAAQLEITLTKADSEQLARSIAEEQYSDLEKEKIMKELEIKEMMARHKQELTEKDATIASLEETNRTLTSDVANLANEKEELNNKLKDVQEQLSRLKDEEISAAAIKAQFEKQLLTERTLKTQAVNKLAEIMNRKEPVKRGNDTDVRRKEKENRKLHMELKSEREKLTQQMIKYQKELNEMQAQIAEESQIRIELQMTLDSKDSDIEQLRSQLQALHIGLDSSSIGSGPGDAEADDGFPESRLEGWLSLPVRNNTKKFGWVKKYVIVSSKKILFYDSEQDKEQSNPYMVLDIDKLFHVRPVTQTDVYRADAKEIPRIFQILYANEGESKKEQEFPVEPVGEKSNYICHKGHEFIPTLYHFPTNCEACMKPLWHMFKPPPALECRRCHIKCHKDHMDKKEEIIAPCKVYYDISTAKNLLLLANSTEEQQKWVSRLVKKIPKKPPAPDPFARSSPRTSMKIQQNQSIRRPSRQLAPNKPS
Sequence of 5-HT2A receptor (P28223 whole entry): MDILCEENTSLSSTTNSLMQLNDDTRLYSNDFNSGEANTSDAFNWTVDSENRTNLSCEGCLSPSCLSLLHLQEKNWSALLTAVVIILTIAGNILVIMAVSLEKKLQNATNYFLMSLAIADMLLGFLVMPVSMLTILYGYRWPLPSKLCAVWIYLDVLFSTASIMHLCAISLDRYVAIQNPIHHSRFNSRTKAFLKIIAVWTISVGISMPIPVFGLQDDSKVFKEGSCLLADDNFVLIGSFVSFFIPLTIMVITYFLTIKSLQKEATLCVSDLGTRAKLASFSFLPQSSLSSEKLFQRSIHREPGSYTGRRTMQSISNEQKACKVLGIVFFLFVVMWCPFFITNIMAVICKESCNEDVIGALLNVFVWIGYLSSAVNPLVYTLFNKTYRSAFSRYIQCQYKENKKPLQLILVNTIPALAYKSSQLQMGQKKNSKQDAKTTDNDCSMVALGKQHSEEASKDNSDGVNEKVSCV

CN(C)CCc1c[nH]c2cccc(O)c12 [Psilocin, 4-hydroxy-N,N-dimethyltryptamine]
MAPK binding affinity value of individual component (JNK3 (MAPK10); [4]): 1 | MAPK binding affinity value of individual component (JNK3 (MAPK10); [5]): 2 | MAPK binding affinity value of individual component ([1]; row of combination at 30, 1.8 ng/mL): 1 | highest mean neurite outgrowth, of vehicle control (PC12 cells; 0.043 μg/mL): 168% | effect on MAPK binding when used alone (MAPK): no effect

O=C(O)c1cccnc1 [Niacin, nicotinic acid, reference compound]
MAPK binding affinity value of individual component (JNK3 (MAPK10); [4]): 0 | MAPK binding affinity value of individual component [1, 6]: 6 | MAPK binding affinity value of individual component [1, 7]: 5 | highest mean neurite outgrowth, of vehicle control (PC12 cells; 0.35 μg/mL): 112% | anti-inflammatory effect (TNF-α expression) (TNF-α): have anti-inflammatory effects at certain concentrations

CNCCc1c[nH]c2cccc(OP(=O)(O)O)c12 [Baeo, 4-phosphoryloxy-N-methyltryptamine]
MAPK binding affinity value of individual component (p38-alpha (MAPK14); combinations at 2.5 μg/mL): 2 | MAPK binding affinity value of individual component (p38-alpha (MAPK14); combinations at 5 μg/mL): 9 | MAPK binding affinity value of individual component (p38-alpha (MAPK14); combinations at 10 μg/mL): 1 | MAPK binding affinity value of individual component (p38-alpha (MAPK14); combinations at 250 μg/mL): 1 | MAPK binding affinity value of individual component (JNK3 (MAPK10); [8]): 8 | MAPK binding affinity value of individual component (TRKA (NTRK1); combinations at 250 μg/mL): 6 | MAPK binding affinity value of individual component (TRKA (NTRK1); [8]): 3 | MAPK binding affinity value of individual component (TRKB (NTRK2)): 12 | MAPK binding affinity value of individual component [1, 9]: 1 | MAPK binding affinity value of individual component (ROCK2): 0 | hallucinogenic effect after consumption ([2]; 4 mg, anecdotal, Gartz 1991): gentle hallucinogenic experience | hallucinogenic effect after oral consumption ([2]; 10 mg and 20 mg, case studies): did not produce any hallucinogenic effects

CC(C)C1=C2C3=CC=C(CO)[C@H]4O[C@H]5[C@@H](OC[C@@H](O)[C@@H]5O)O[C@@H]4[C@]3(C)CC[C@@]2(C)CC1 [Erinacine C]
MAPK binding affinity value of individual component (JNK3 (MAPK10); [5]): 6

COc1ccc2c3c([nH]c2c1)C(C)=NCC3 [harmaline, 3,4-dihydro-7-methoxy-1-methyl-carboline]
MAO-A inhibition (MAO-A): specific MAO-A inhibitors | MAO-B inhibition (MAO-B): poor inhibitors of MAO-B

CN(C)CCc1c[nH]c2ccccc12 [DMT, N,N-dimethyltryptamine]
MAPK binding affinity value of individual component [1, 7]: 5

COc1cc(C[C@@H](C)N)c(OC)cc1I [(R)-2,5-dimethoxy-4-iodoamphetamine]
5-HT2A receptor activation (5-HT2A receptor): activate the 5-HT2A receptor | inflammation in the lungs [3]: prevent and reverse inflammation in the lungs

CNCCc1c[nH]c2cccc(O)c12 [Norpsilo, 4-hydroxy-N-methyl-tryptamine]
MAPK binding affinity value of individual component (p38-alpha (MAPK14); combinations at 2.5 μg/mL): 15 | MAPK binding affinity value of individual component (p38-alpha (MAPK14); combinations at 5 μg/mL): 1 | MAPK binding affinity value of individual component (p38-alpha (MAPK14); combinations at 10 μg/mL): 21 | MAPK binding affinity value of individual component (p38-alpha (MAPK14); combinations at 250 μg/mL): 21 | MAPK binding affinity value of individual component (JNK3 (MAPK10); row of combination at 5 μg/mL): 19 | MAPK binding affinity value of individual component [1, 6]: 0 | expression of the anti-inflammatory cytokine IL-10 (IL-10): significantly upregulate | anti-inflammatory effect (TNF-α expression) (TNF-α): have anti-inflammatory effects at certain concentrations

COc1ccc2c(c1)[nH]c1c(C)nccc12 [Harmine, 7-methyoxy-1-methyl-carboline]
MAO-A inhibition (MAO-A): specific MAO-A inhibitors | MAO-B inhibition (MAO-B): poor inhibitors of MAO-B

NCCc1c[nH]c2cccc(OP(=O)(O)O)c12 [Norbaeo, 4-phosphoryloxy-tryptamine]
MAPK binding affinity value of individual component (p38-alpha (MAPK14); combinations at 2.5 μg/mL): 22 | MAPK binding affinity value of individual component (p38-alpha (MAPK14); combinations at 5 μg/mL): 12 | MAPK binding affinity value of individual component (p38-alpha (MAPK14); combinations at 10 μg/mL): 17 | MAPK binding affinity value of individual component (JNK3 (MAPK10); row of combination at 5 μg/mL): 4 | MAPK binding affinity value of individual component (JNK3 (MAPK10); [8]): 4 | MAPK binding affinity value of individual component (TRKA (NTRK1); combinations at 250 μg/mL): 3 | MAPK binding affinity value of individual component (TRKB (NTRK2)): 0 | MAPK binding affinity value of individual component [1, 9]: 3 | MAPK binding affinity value of individual component ([1]; rows of combinations at 62.5 μg/mL): 3 | expression of the anti-inflammatory cytokine IL-10 (IL-10): significantly upregulate | IL-6 expression (IL-6): significantly reduced
